The results in this text go back to patent publication US20250195511A1, “INDAZOLE DERIVATIVES USEFUL AS INHIBITORS OF NOD-LIKE RECEPTOR PROTEIN 3” (Merck Sharp & Dohme LLC, priority 2023, published 2025).

In the first test the test system is NLRP3 inflammasome. Briefly: NLRP3 inflammasome activation: ASC-SPECK formation in gramicidin-stimulated THP-1 cells. The class given is cell-based. The settings on record: Homo sapiens, THP-1, inhibition of ASC SPECK formation; PMA-treated human monocytic THP-1 cells, compound 1 h before 12.5 μg/ml gramicidin, 3-hour treatment. The method in brief:
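Undifferentiated human THP-1 cells primed overnight with 10 ng/ml PMA, then given compounds 1 h before 12.5 μg/ml gramicidin for 3 h at 37° C in RPMI with 0.01% BSA. Fixed cells immunostained for ASC with DRAQ5 nuclear counterstain; DRAQ5-positive cells with ASC specks counted by high-content imaging; EC50 from curve fitting.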
Turning to `Cc1cc(C(F)(F)F)cc(O)c1-c1cnc2cn([C@@H]3CC[C@H](C#N)C3)nc2n1` (racemic) [Example 20, (1S,3R and 1R,3S)-3-(6-(2-hydroxy-6-methyl-4-(trifluoromethyl)phenyl)-2H-pyrazolo[3,4-b]pyrazin-2-yl)cyclopentane-1-carbonitrile], the EC50 (usually the concentration needed to bring the measured effect to its halfway point) is 186 nM.
For the molecule `Cc1cc(C(F)(F)F)cc(O)c1-c1cnc2cn([C@H]3CC[C@H](C#N)CC3)nc2n1` [Example 40, (1R,4R)-4-(6-(2-hydroxy-6-methyl-4-(trifluoromethyl)phenyl)-2H-pyrazolo[3,4-b]pyrazin-2-yl)cyclohexane-1-carbonitrile], the EC50 amounted to 81 nM.
As for `Cc1cc(C(F)(F)F)cc(O)c1-c1cnc2cn([C@H]3CC[C@@H](C#N)CC3)nc2n1` [Example 11, (1S,4S)-4-(6-(2-hydroxy-6-methyl-4-(trifluoromethyl)phenyl)-2H-pyrazolo[3,4-b]pyrazin-2-yl)cyclohexane-1-carbonitrile], the EC50 was found to be 1500 nM.
Same read-out and setting: for `Cc1cc(C(F)(F)F)cc(O)c1-c1cnc2cn([C@H]3C[C@H](C#N)C3)nc2n1` [Example 36, (1R,3R)-3-(6-(2-hydroxy-6-methyl-4-(trifluoromethyl)phenyl)-2H-pyrazolo[3,4-b]pyrazin-2-yl)cyclobutane-1-carbonitrile] the value was 18 nM; for `COc1ccc(CN2CC(n3nc4nc(-c5c(C)cc(C(F)(F)F)cc5O)cnc4c3C)CCC2=O)cc1` (racemic) [Example 107, (R and S)-5-(6-(2-hydroxy-6-methyl-4-(trifluoromethyl)phenyl)-3-methyl-2H-pyrazolo[3,4-b]pyrazin-2-yl)-1-(4-methoxybenzyl)piperidin-2-one], 279 nM.
For the molecule `Cc1cc(C(F)(F)F)cc(O)c1-c1cnc2cn([C@H]3C[C@@H]3C)nc2n1` [Example 52, 3-methyl-2-[2-[(1S,2S)-2-methylcyclopropyl]pyrazolo[3,4-b]pyrazin-6-yl]-5-(trifluoromethyl)phenol], the EC50 was found to be 40 nM.
`Cc1cc(C(F)(F)F)cc(O)c1-c1cnc2nn([C@H]3C[C@H](F)C3)nc2n1` [Example 121, 2-(2-((1R,3R)-3-fluorocyclobutyl)-2H-[1,2,3]triazolo[4,5-b]pyrazin-5-yl)-3-methyl-5-(trifluoromethyl)phenol]: the EC50 worked out at 411 nM.
As for `Cc1cc(C(F)(F)F)cc(O)c1-c1cnc2cn(C34COCC(C3)C4)nc2n1` [Example 14, 2-(2-(3-oxabicyclo[3.1.1]heptan-1-yl)-2H-pyrazolo[3,4-b]pyrazin-6-yl)-3-methyl-5-(trifluoromethyl)phenol], the EC50 was 154 nM.

Still in this test, the particulars now being: inhibition of ASC SPECK formation; PMA-treated human monocytic THP-1 cells, compound 1 h before 12.5 μg/ml gramicidin, 3-hour treatment.
Take `Cc1cc(C(F)(F)F)cc(O)c1-c1cnc2cn(CC3CC(=O)N(C)C3)nc2n1` (single isomer, unassigned) [Example 59, (S or R)-4-((6-(2-hydroxy-6-methyl-4-(trifluoromethyl)phenyl)-2H-pyrazolo[3,4-b]pyrazin-2-yl)methyl)-1-methylpyrrolidin-2-one]: the EC50 worked out at 20 nM.
In the case of `Cc1cc(C(F)(F)F)cc(O)c1-c1cnc2cn(CC3CC(=O)N(C4CC4)C3)nc2n1` (single isomer, unassigned) [Example 63, (S or R)-1-cyclopropyl-4-((6-(2-hydroxy-6-methyl-4-(trifluoromethyl)phenyl)-2H-pyrazolo[3,4-b]pyrazin-2-yl)methyl)pyrrolidin-2-one], the EC50 stood at 12 nM.
The same measure, in the same setting: for `Cc1cc(C(F)(F)F)cc(O)c1-c1cnc2cn(C34COCC3C4)nc2n1` (single isomer, unassigned) [Example 83, 2-(2-((1R,5R or 1S,5S)-3-oxabicyclo[3.1.0]hexan-1-yl)-2H-pyrazolo[3,4-b]pyrazin-6-yl)-3-methyl-5-(trifluoromethyl)phenol] the value was 11 nM; for `Cc1cc(C(F)(F)F)cc(O)c1-c1cnc2c(C(C)O)n(C3CCC(=O)N(C(C)C)C3)nc2n1` (single isomer, unassigned) [Example 118, (R or S)-5-(6-(2-hydroxy-6-methyl-4-(trifluoromethyl)phenyl)-3-((S or R)-1-hydroxyethyl)-2H-pyrazolo[3,4-b]pyrazin-2-yl)-1-isopropylpiperidin-2-one], 26 nM.
